Activity calls are given as the source filed them.
Legend:
[1] = molecular target: Beta-galactosidase (Escherichia coli, UniProt Q8VNN2); assay: PubChem AID 485352; format: functional
[2] = molecular target: T1, Type-1 angiotensin II receptor (Homo sapiens, UniProt P30556); assay: antagonism of angiotensin II type 1 receptor – cell-based, uHTS hits, selectivity assay for APJ receptor antagonist project, dose response (AID 463214); format: functional;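 further: antagonist potency against angiotensin II stimulated AT1 response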
T1 sequence (P30556 whole entry): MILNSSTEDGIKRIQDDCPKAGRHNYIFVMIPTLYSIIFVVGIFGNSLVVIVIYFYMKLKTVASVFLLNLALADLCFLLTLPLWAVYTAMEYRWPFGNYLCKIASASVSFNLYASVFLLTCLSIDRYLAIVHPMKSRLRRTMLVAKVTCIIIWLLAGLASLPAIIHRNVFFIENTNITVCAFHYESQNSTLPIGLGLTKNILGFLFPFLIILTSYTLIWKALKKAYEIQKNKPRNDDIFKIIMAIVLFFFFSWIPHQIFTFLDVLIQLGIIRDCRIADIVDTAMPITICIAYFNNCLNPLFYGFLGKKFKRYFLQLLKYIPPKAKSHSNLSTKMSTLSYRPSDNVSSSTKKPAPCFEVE

[3] = Luminescence Cell-Based Dose Retest to Confirm Inhibitors of Cancer Stem Cells. [Related pubchem assays (depositor defined):AID2717, AID2721]; format: functional; settings: Homo sapiens
[4] = molecular target: Glyceraldehyde-3-phosphate dehydrogenase (Homo sapiens, UniProt P04406)
Chain of Glyceraldehyde-3-phosphate dehydrogenase (P04406 whole entry): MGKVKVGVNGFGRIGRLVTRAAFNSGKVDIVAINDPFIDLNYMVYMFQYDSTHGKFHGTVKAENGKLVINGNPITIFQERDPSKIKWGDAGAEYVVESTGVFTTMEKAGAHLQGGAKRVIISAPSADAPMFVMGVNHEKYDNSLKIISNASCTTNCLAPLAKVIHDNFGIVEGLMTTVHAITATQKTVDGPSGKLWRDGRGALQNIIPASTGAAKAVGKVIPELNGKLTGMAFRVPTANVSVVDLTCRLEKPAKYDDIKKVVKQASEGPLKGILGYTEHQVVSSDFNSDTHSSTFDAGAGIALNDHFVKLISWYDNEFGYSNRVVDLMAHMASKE

[5] = molecular target: T2, Alkaline phosphatase, tissue-nonspecific isozyme (Homo sapiens, UniProt P05186); assay: potency against alkaline phosphatase TNAP – biochemical, luminescent, dose response, SAR follow-up (AID 1056)
T2 sequence (P05186 whole entry): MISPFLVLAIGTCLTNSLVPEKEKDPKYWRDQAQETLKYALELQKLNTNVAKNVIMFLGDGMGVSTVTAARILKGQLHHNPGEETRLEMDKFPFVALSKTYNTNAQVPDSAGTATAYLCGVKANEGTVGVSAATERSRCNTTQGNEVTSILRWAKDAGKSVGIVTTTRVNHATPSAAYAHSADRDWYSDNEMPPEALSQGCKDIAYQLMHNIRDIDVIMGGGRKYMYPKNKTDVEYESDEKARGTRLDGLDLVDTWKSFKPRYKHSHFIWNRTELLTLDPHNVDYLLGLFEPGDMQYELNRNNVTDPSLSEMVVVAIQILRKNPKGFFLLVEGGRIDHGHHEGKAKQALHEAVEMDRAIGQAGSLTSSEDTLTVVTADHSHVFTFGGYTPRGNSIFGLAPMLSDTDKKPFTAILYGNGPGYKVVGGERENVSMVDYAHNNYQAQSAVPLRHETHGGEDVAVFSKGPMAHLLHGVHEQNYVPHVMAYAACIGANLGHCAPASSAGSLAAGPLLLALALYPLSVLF

[6] = molecular target: Alkaline phosphatase, placental type (Homo sapiens, UniProt P05187); assay: human placental alkaline phosphatase inhibition – biochemical, luminescence, confirmation (AID 1512); format: functional
Chain of Alkaline phosphatase, placental type (P05187 whole entry): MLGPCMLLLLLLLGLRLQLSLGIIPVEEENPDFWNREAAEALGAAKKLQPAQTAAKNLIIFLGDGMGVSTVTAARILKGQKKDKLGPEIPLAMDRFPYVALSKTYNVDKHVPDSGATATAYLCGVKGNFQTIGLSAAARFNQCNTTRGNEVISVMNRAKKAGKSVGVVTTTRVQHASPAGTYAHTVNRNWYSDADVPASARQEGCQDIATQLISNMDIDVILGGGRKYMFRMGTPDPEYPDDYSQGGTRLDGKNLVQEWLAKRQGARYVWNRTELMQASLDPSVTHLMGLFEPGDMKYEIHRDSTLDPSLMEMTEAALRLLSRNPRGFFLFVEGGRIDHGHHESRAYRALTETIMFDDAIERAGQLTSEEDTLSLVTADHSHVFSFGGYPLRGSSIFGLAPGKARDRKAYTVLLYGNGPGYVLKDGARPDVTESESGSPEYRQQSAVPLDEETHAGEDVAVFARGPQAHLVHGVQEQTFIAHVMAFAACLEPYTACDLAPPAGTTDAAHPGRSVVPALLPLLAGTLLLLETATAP

[7] = molecular target: Peroxisome proliferator-activated receptor gamma/Nuclear receptor coactivator 1 (Homo sapiens, UniProt P37231); assay: (§1) TR-FRET dose response biochemical High Throughput Screening assay for agonists of the steroid receptor coactivator 1 (SRC-1) recruitment by the peroxisome proliferator-activated receptor gamma (PPAR gamma): non-selective agonists. [Related pubchem assays (depositor defined):AID1300, AID1808, AID504735, AID631]; format: protein assay
Chain of Peroxisome proliferator-activated receptor gamma/Nuclear receptor coactivator 1 (P37231 whole entry): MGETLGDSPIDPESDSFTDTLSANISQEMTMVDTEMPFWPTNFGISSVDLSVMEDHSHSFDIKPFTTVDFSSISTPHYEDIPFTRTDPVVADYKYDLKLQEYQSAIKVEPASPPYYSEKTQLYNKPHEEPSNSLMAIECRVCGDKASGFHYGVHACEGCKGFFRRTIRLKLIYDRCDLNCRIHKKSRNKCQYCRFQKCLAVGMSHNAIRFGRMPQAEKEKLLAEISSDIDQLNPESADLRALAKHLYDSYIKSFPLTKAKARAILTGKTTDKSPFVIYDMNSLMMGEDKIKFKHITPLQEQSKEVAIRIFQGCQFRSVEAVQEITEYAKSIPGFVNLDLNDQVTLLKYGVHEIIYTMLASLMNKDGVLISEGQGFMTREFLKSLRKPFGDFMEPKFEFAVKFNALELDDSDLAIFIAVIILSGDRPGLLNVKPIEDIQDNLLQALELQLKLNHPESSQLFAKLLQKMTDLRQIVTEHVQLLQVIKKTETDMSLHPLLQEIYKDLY
Chain of Peroxisome proliferator-activated receptor gamma/Nuclear receptor coactivator 1 (Q15788 whole entry, further chain): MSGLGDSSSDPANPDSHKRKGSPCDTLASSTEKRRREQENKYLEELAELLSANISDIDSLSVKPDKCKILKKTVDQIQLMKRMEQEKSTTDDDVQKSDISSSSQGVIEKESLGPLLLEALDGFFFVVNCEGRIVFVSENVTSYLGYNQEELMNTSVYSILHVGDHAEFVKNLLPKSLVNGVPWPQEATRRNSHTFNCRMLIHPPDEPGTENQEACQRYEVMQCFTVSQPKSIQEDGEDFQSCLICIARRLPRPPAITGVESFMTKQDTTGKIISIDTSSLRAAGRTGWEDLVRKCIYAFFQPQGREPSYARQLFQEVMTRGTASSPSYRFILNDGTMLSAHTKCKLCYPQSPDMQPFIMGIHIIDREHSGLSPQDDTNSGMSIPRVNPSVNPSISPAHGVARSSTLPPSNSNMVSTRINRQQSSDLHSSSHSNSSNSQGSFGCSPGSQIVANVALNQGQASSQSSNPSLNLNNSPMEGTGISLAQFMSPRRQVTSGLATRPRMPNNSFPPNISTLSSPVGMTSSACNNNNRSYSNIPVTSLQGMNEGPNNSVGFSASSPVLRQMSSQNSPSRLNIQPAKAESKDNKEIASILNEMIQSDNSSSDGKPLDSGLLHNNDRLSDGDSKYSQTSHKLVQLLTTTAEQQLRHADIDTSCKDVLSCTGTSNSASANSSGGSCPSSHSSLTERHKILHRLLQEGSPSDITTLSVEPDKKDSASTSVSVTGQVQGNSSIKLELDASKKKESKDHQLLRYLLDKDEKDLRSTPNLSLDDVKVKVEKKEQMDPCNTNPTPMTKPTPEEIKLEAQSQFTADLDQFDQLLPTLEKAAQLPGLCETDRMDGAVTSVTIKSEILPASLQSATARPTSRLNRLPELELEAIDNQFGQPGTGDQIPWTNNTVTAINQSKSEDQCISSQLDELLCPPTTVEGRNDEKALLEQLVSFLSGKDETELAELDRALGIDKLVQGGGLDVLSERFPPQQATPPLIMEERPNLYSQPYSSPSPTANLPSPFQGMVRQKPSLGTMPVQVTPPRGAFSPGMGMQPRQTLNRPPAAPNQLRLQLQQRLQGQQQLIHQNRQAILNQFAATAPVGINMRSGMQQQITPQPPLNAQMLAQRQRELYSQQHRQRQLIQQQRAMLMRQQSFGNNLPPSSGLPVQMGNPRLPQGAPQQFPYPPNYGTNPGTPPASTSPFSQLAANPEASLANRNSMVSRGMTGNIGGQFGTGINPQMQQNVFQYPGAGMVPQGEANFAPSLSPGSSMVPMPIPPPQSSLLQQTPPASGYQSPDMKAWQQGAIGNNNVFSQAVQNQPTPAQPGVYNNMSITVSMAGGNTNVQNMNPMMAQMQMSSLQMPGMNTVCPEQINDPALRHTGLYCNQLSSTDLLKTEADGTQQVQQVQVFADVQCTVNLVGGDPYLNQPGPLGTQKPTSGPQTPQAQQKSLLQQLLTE

[8] = molecular target: Peroxisome proliferator-activated receptor gamma/Nuclear receptor coactivator 3 (Homo sapiens, UniProt P37231); assay: as §1, with “3 (SRC-3)” for “1 (SRC-1)”, “assays: 1301 (Confirmation screen.), 1048 (Primary screen.)]” for “assays (depositor defined):AID1300, AID1808, AID504735, AID631]”; format: functional
Chain of Peroxisome proliferator-activated receptor gamma/Nuclear receptor coactivator 3 (P37231 whole entry): as the sequence (P37231 whole entry) above
Chain of Peroxisome proliferator-activated receptor gamma/Nuclear receptor coactivator 3 (Q9Y6Q9 whole entry, further chain): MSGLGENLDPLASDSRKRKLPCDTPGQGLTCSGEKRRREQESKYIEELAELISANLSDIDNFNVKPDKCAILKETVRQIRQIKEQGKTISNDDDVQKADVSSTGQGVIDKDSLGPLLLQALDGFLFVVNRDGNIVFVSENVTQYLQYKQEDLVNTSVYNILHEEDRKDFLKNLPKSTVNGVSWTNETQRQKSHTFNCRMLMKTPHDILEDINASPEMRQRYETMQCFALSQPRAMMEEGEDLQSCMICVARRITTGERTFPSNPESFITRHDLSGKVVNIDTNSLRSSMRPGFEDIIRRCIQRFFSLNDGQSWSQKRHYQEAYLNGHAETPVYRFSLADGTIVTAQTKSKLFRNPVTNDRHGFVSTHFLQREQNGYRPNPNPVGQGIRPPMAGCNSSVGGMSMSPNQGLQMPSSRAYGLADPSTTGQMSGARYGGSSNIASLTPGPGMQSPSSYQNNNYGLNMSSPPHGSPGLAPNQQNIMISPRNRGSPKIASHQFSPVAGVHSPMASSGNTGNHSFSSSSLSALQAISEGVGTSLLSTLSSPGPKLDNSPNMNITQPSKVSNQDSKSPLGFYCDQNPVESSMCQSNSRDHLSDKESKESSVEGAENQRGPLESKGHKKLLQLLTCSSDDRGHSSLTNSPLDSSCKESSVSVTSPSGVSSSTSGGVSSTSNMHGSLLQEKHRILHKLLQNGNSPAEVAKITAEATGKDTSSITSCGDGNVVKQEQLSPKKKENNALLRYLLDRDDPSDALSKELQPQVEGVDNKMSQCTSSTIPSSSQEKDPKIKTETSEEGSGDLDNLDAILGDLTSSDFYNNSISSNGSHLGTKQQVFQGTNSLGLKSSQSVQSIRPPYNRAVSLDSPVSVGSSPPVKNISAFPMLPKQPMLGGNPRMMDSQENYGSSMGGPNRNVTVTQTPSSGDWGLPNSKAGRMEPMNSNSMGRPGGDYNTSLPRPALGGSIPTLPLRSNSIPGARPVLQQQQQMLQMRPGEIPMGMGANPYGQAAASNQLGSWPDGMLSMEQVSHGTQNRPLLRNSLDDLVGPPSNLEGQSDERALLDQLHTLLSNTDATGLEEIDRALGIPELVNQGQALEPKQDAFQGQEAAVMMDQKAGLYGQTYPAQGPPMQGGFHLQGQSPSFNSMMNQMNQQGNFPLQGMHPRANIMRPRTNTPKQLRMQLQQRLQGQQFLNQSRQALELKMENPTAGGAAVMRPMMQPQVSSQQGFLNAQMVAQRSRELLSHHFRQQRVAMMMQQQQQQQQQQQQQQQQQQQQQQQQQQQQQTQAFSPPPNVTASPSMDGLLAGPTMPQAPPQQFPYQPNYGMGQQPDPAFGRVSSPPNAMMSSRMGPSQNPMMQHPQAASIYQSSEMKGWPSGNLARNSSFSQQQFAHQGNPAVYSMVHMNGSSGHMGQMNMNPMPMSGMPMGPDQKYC

[9] = molecular target: Peroxisome proliferator-activated receptor gamma/Nuclear receptor coactivator 2 (Homo sapiens, UniProt P37231); assay: TR-FRET dose response biochemical High Throughput Screening assay for agonists of the steroid receptor coactivator 2 (SRC-2) recruitment by the peroxisome proliferator-activated receptor gamma (PPAR gamma): non-selective agonists. [Related pubchem assays: 1297, 1032 ]; format: functional
[10] = tested on: INS1; assay: INS-1E survival protection against cytokine death – cell-based, luminescence, retest, dose response (AID 449756); format: functional; settings: Rattus norvegicus;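 further: cell death triggered by IL-1 beta plus TNF-alpha plus IFN-gamma mixture; protective hits raise ATP signal compared with cytokine alone wells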

SMILES	IC50 [4]	IC50 [5]	EC50 [7]	EC50 [8]	EC50 [9]	other results
O=C(NNc1ccc(-c2csnn2)cc1)c1cc(Cl)cc(Cl)c1						EC50 [1]: > 40 µM (inactive); IC50 [2]: 2.43 µM (active); AC50 [3]: 2.15 µM (active)
O=S(=O)(Nc1cccnc1)c1cc(Cl)ccc1Cl	> 100 µM (not active)	> 100 µM (inactive)				
O=C1c2cccc(F)c2C(=O)N1c1nnc(Cc2ccccc2)[nH]1	> 100 µM (not active)	0.353 µM (active)				IC50 [6]: > 100 µM (inactive)
CC1(C)CC(=O)c2c(n[nH]c2-c2cccnc2)C1	> 100 µM (not active)	13.3 µM (active)				IC50 [6]: > 100 µM (inactive)
O=C(CSc1ncnc2c1oc1ccccc12)NC1CCCCC1			9.85 µM (active)	> 79.4 µM (not active)	14.4 µM (not active)	
COc1ccc(CNC(=O)CSc2nc(-c3ccccc3)cc(-c3cccs3)c2C#N)cc1			22.9 µM (inactive)	> 79.4 µM (not active)	22.2 µM (not active)	
O=C(O)c1ccc2c(c1)C(=O)N(c1nc(-c3cccnc3)n[nH]1)C2=O	> 100 µM (not active)	> 100 µM (inactive)				
CCOC(=O)c1sc2nc(C)nc(S)c2c1C			162 µM (inactive)	> 79.4 µM (not active)	37.3 µM (not active)	
COc1ccc(CC(=O)OCC(=O)c2ccc(S(=O)(=O)N3CCCCC3)cc2)cc1						EC50 [1]: > 40 µM (inactive); IC50 [2]: 20 µM (not active)
Nc1nc(COc2ccccc2)n(-c2ccccc2)n1	> 100 µM (not active)	> 100 µM (inactive)				IC50 [6]: > 100 µM (inactive)
COc1ccc2c(c1)C(=O)[C@H](O)[C@@H](c1ccc(OC)c(Br)c1)O2						EC50 [1]: > 40 µM (inactive); IC50 [2]: 12.1 µM (active); AC50 [3]: 7.62 µM (active); AC50 [10]: 3.71 µM (active)
Cc1ccc(-n2c(S)nnc2-c2cccc(C)c2)cc1			70.8 µM (inactive)	> 79.4 µM (not active)	40.1 µM (not active)	
O=C1CC(Sc2nnc(-c3ccccc3)o2)C(=O)N1c1ccccc1 (centres undefined)			> 79.4 µM (inactive)	> 79.4 µM (not active)	89.2 µM (not active)	
O=C(CSc1nnc(-c2ccccc2)[nH]1)c1ccc(O)cc1O		3.71 µM (active)				IC50 [6]: > 100 µM (inactive)
